{
  "source": "ChEMBL document CHEMBL3044650",
  "about": "“Interaction studies of E. coli uracil phosphoribosyltransferase with 5-fluorouracil for potent anti cancer activity” (Med Chem Res, 2012)",
  "biological_target": "T1, Uracil phosphoribosyltransferase (Escherichia coli (strain K12), UniProt P0A8F0)",
  "T1 sequence (P0A8F0 whole entry)": "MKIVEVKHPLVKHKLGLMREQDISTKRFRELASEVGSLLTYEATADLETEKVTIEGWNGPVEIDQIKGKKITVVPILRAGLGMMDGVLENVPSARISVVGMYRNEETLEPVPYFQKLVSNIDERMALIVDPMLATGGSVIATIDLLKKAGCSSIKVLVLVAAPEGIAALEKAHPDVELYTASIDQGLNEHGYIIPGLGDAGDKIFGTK",
  "test": "Inhibition of Escherichia coli K-12 MTCC 1302 UPRT activity by spectrophotometry",
  "data": [
    {"smiles": "O=c1[nH]cc(F)c(=O)[nH]1", "note": "[FLUOROURACIL]", "values": [
      {"measurement": "Ki", "value": 13, "unit": "µM"}
    ]}
  ]
}
